Where two headings read alike, the source gives them in different places.
Columns and labels:
[1] = for blood pressure and pulse: first patient
Protocol: During the period of observation, vital signs (blood pressure and pulse) and symptoms were continuously recorded. The protocol was such that if the blood pressure dropped by more than 20 mm Hg systolic or diastolic or the pulse increased by more than 30 beats per minute for 2 minutes, intravenous saline was to be administered and the study terminated.

gastroduodenal motility = conditions: cited from earlier work
[2] = in vivo; cited from earlier work
opossum duodenum = conditions: cited from earlier work
[3] = in vivo; cited from earlier work; remark: listed apart in the source
[4] = system: rat and guinea pig isolated midcolon sections; conditions: cited from earlier work
isolated human ileum = conditions: all frequencies tested; cited from earlier work
[5] = 1 mg intravenously followed by 2 mg IV over 2 hours

CC[C@H](C)[C@H](NC(=O)[C@H](CO)NC(=O)[C@H](CC(N)=O)NC(=O)[C@H](CC(C)C)NC(=O)[C@H](Cc1ccc(O)cc1)NC(=O)[C@H](CCCCN)NC(=O)[C@H](CCCCN)NC(=O)[C@@H](NC(=O)[C@H](C)NC(=O)[C@H](CCSC)NC(=O)[C@H](CCC(N)=O)NC(=O)[C@H](CCCCN)NC(=O)[C@H](CCCN=C(N)N)NC(=O)[C@H](CC(C)C)NC(=O)[C@H](CCCN=C(N)N)NC(=O)[C@@H](NC(=O)[C@H](Cc1ccc(O)cc1)NC(=O)[C@H](CC(N)=O)NC(=O)[C@H](CC(=O)O)NC(=O)[C@@H](NC(=O)[C@H](Cc1ccccc1)NC(=O)[C@@H](NC(=O)[C@H](C)NC(=O)[C@H](CC(=O)O)NC(=O)[C@H](CO)NC(=O)[C@@H](N)Cc1c[nH]cn1)C(C)C)[C@@H](C)O)[C@@H](C)O)C(C)C)C(=O)N[C@@H](CC(C)C)C(=O)N[C@@H](CC(N)=O)C(N)=O [VIP, vasoactive intestinal peptide]
blood pressure and pulse ([1]; 5 ng VIP per kg): slight decrease in systolic pressure and increase in pulse | blood pressure and pulse ([1]; higher dose level (20 ng/kg)): these effects on blood pressure and pulse were not seen | blood pressure or pulse ([1]; second patient, any of the dosages tested): no significant change | effect on blood pressure ([1]; summary statement): without a significant effect | blood pressure or pulse ([1]; third patient, any dose): no significant change | adverse reactions such as nausea or vomiting ([1]; three patients): None of the three patients studied experienced any adverse reactions

glucagon
cycle length and time between contractile activity in the duodenum (gastroduodenal motility; [5]): significantly increased | mean pressure period (gastroduodenal motility; [5]): decreased | contractions in the antrum (gastroduodenal motility; doses as high as 2 mg): does not reduce contractions | colonoscopic evaluation (gastroduodenal motility; in vivo): does not facilitate | gastroduodenal motility (gastroduodenal motility; in vivo): variable reduction | minimally effective dose for reduction in gastroduodenal motility (gastroduodenal motility; in vivo): 0.5 mg | dose at which nausea and vomiting can appear [2]: 1 mg | effect on opossum duodenum (opossum duodenum): stimulated relaxation

CN1[C@@H]2CC[C@H]1C[C@@H](OC(=O)C(CO)c1ccccc1)C2 (stereo partly drawn) [atropine]
beneficial effects during endoscopies (patient tolerance, facilitation of endoscopy) [3]: failed to demonstrate any beneficial effects | ascending contractions ([4]; all grades of stretch): strongly inhibits | descending relaxation [4]: no effect | response to electrical field stimulation (isolated human ileum): primary relaxation

Source: US5681816A, “Method of inducing temporary paralysis of the gastrointestinal tract during medical procedure” (priority 1994, dated 1997)
